Measured values as given in US10660789B2, “1,4-dihydropyridine derivatives with HSP modulating activity” (Richter Gedeon NYRT., priority 2011, dated 2020).
Structures can show the parent of a compound that is named as a salt. Where two headings read alike, the source gives them in different places. Marks after values point to notes of the source that are not given here. Blank lines part the entries; values can stand above or below the compound they belong to.

Tests used:
[1] = test system: other Hsps; assay: Other in vitro HSP modulating effects (Table 3); format: cell-based, mouse and human; set-up: key: +: co-inducing activity; −: silencing activity; 0: with the experimental methods applied no other HSP modulating effects could be identified
Procedure: (§1) The Hsp co-inducing effect of the compounds on stress response was tested on B16 mouse melanoma and SHSY5Y human neuroblastoma cell lines stably transfected with Hsp promoter probing plasmids. This kind of promoter probing, using the promoter region of a given gene conjugated with fluorescent protein is used as a best and fastest test system for finding drugs which modulate the activity of the gene followed by the given promoter (Wyshocka et al., Mol. Cel. Biochem. 215:153-156, 2000).
(§2) Reporter plasmids, containing the Hsp70 and/or Hsp25 promoter conjugated to either YFP or GFP (yellow or green fluorescent protein), were stably transfected into the cells and the expression of YFP or GFP was followed by flow cytometry. Cells were either kept at 37° C. or exposed to heat shock at 42° C. for 1 hour followed by a 16 hour recovery period at 37° C. in the presence or absence of different concentrations of the test compound. After recovery the expression of YFP or GFP which is in straight correlation with the promoter activity of Hsp70 or Hsp27 genes was followed by measuring the fluorescence intensity of the cells by flow cytometry. Fluorescence intensity is in straight correlation with the amount of fluorescent protein (GFP or YFP) produced under the control of hsp promoter. The mean fluorescence intensity of YFP or GFP produced is shown as “Hsp promoter activity”.
(§3) Cells were homogenously distributed on 6-well plates in 1×10^5 cells/well density. B16-pHsp25-GFP and B16-pHsp70-YFP melanoma cells were grown in RPMI-1640 medium supplemented with 10% Fetal bovine serum (FBS), penicillin (200 units/ml), streptomycin (200 μg/ml) and 2 mM L-Glutamine. For maintaining the SH-SY5Y-pHsp25-GFP and SH-SY5YpHsp70-YFP neuroblastoma cell lines Dulbecco's modified Eagle's medium (DMEM-F-12) containing 10% FBS, 2 mM L-Glutamine, penicillin (200 units/ml), streptomycin (200 μg/ml) and MEM non-essential amino acids were used. Before the treatments both cell lines were incubated at 37° C. in a saturated humidity atmosphere containing 95% air and 5% CO2. After 24 h incubation cells were pretreated with compounds of the invention in four different concentrations (usually in 3; 10; 20 and 50 μM) 30 min before the heat shock at 42° C. for 1 h and then incubated further at 37° C. for 16 h (recovery period). After this procedure cells were trypsinized and suspensed in 500 μl serum-free DMEM-F12 medium. The changes in cells' fluorescence were detected using BD FACSCalibur flow cytometer.
SY-SY5Y and B16 cells were extracted in NP-40 lysis buffer (PBS pH 7.4, 1% protease inhibitor coctail and 1% Triton X-100). The cell extracts were then constantly agitated at 4° C. for 2 h. The cell extracts were centrifuged at 12000×g for 30 min and supernatants were saved. After the protein concentration measurement 15 μg of total protein was separated by sodium dodecyl sulfate-polyacrylamide gel electrophoresis (SDS-PAGE) under reducing conditions according to the method of Laemmli. Proteins were blotted onto PVDF membrane. The blot was incubated overnight at 4° C. in the presence of mouse α-Hsp25, α-Hsp70, α-Hsp60 és α-Hsp90 monoclonal antibodies diluted in PBS. Then, the membrane was washed three times in PBS-0.05% Tween and incubated for 1 h in peroxidase-conjugated anti-mouse IgG antibody diluted 1:50000 in PBS containing 3% non-fat dry milk. The immune complexes were detected with chemo-luminescent substrate of peroxidase according to the supplier's instructions. Images taken from the membranes were analyzed using AlphaEase FC software.

[2] = test system: Hsp70 promoter; assay: Hsp promoter probing, Hsp70 promoter-YFP reporter, flow cytometry (Table 3); format: cell-based, mouse and human; set-up: key: +: co-inducing activity; −: silencing activity; 0: with the experimental methods applied no other HSP modulating effects could be identified; settings: heat shock 42° C. 1 h, 16 h recovery; B16 or SHSY5Y reporter cells, cell line per value not stated
Procedure: as §1
The Hsp encoding genes are transactivated through the binding of HSF to the heat shock element found on the DNA upstream of the Hsp genes, in the so called promoter region. In the absence of heat stress, the heat shock factors are present as monomers. Upon heat stress, however, the heat shock factors form trimers, which are the active components, able to bind to heat shock elements. Once HSF is bound to the heat shock element in the promoter of Hsp genes, the gene following the promoter region is transcriptionally active.
as §2, §3

[3] = test system: Zucker obese rat; assay: Insulin resistance, Zucker obese rat; format: in vivo
Procedure: Insulin sensitizing activity of the compounds was tested in Zucker obese rat at three doses (10, 30 and 100 mg/kg), 6 weeks old Zucker obese (ZO) rats were adapted for a week before the administration of the compound. The animals were treated once a day for 5 days with compound Ex. 1 with 10, 30 and 100 mg/kg dose by stomach probe. The control group was treated with Klucel solution. The animals were kept in metabolic cage during the experiment, their food and drink consumption, the amount of urine and faeces was determined daily.
At the end of the treatment period the animals were fasted for 16 hours, the fasting plasma glucose level was determined. At the end the animals were sacrificed and different organs were taken for Hsp measurement.

[4] = test system: Hsp25 promoter; assay: Hsp25 promoter-GFP reporter in SHSY5Y cells, flow cytometry; format: cell-based, human
Procedure: as §1, §2
The fluorescence intensity of GFP and YFP […].
Selectivity of the Hsp25 co-inducing activity of compound of Ex. 11 is shown on FIG. 3. […] The fluorescence intensity of GFP produced as a result of Hsp25 promoter activity was measured by flow cytometry.
(§4) Cells were homogenously distributed on 6-well plates in 1×10^5 cells/well density. B16-pHsp25-GFP and B16-pHsp70-YFP melanoma cells were grown in RPMI-1640 medium supplemented with 10% Fetal bovine serum (FBS), penicillin (200 units/ml), streptomycin (200 μg/ml) and 2 mM L-Glutamine. […] The changes in cells' fluorescence were detected using BD FACSCalibur flow cytometer.

[5] = test system: Hsp25; assay: Other in vitro effects, Hsp25 (Table 3); format: cell-based, mouse and human; set-up: key: +: co-inducing activity; −: silencing activity; 0: with the experimental methods applied no other HSP modulating effects could be identified
Procedure: as §1, §2, §4
SY-SY5Y and B16 cells were extracted in NP-40 lysis buffer (PBS pH 7.4, 1% protease inhibitor coctail and 1% Triton X-100). […] The immune complexes were detected with chemo-luminescent substrate of peroxidase according to the supplier's instructions. Images taken from the membranes were analyzed using AlphaEase FC software.

[6] = test system: B16 melanoma cells; assay: Experimental metastatic melanoma, B16 cells i.v. in C57Bl/6 mice; format: in vivo, mouse; settings: for drug-related mortality and weight loss: 10 mg/kg i.p. daily, tumor bearing mice; for In vivo efficacy: model in which efficacy was shown
Procedure: The anticancer activity was tested in C57Bl/6 mouse (B6), the best known syngeneic mouse model of experimental metastatic melanoma. C57Bl/6 mice injected with B16 melanoma cells subcutaneously or intramuscularly develop primary tumors that, in a part of the recipients, give rise to lung metastases. When the B16 cells are injected intravenously via the tail vein, a fraction of the tumor cells homes directly in the lung, where they develop into multiple independent tumor nodules termed “experimental metastases”. Although lung tumors are the most prominent, brain, liver and kidney tumors are also detectable in intravenously injected mice. Since the behavior of the tumor-bearing mice is quite uniform, the model is suitable for simultaneous testing of high numbers of drug candidates in a limited number of experimental animals.
The in vivo tumor experiments were performed with cultured B16 cells that were previously re-isolated from lung metastatic nodules, therefore their metastatic potential was kept optimal. The tumor cells liberated from the tumor mass by trypsin digestion were expanded in cell culture and stored in aliquots in liquid nitrogen, while the number of in vitro passages was kept to a minimum. In the experiments, B6 mice were injected with 100 000 B16 melanoma cells i.v. via the tail vein. The drug candidates were dissolved in physiological saline then they were administered i.p. in a volume of 100 ul. Daily treatment of tumor bearing mice started at day 7 after the tumor injection. The body weight of the mice was measured at day 1, 7, 14 and 21. The survival of the tumor bearing mice was recorded daily. All experiments were performed in accordance with national and European animal welfare guidelines. To prevent unnecessary suffering, moribund mice were euthanized.

[7] = Acute toxicity (LD50); settings: in vivo
[8] = test system: Ca^2+ channel; assay: Hsp modulating versus Ca2+ antagonist effect
[9] = test system: Hsp70 promoter; assay: Hsp70 promoter-YFP reporter in B16 F-10 melanoma cells, flow cytometry; format: cell-based, mouse; settings: stress induced, FIG. 4
Procedure: as §1
Reporter plasmids, containing the Hsp70 and/or Hsp25 promoter conjugated to either YFP or GFP (yellow or green fluorescent protein), were stably transfected into the cells and the expression of YFP or GFP was followed by flow cytometry. […] After recovery the expression of YFP or GFP which is in straight correlation with the promoter activity of Hsp70 or Hsp27 genes was followed by measuring the fluorescence intensity of the cells by flow cytometry. Fluorescence intensity is in straight correlation with the amount of fluorescent protein (GFP or YFP) produced under the control of hsp promoter. The mean fluorescence intensity of YFP or GFP produced is shown as “Hsp promoter activity”.
Some of the compounds are Hsp70 selective stress protein response silencers as shown on FIG. 4. […] The fluorescence intensity of YFP produced as a result of Hsp70 promoter activity was measured by flow cytometry. […]

[10] = test system: B16F10 melanoma cells; assay: Vincristine cytotoxicity in combination, B16F10 melanoma cells; format: cell-based; settings: Mus musculus, read-out: IC50 of VR (50% inhibition of cell growth)
Procedure: Cells were homogenously distributed on 96-well plates in 5×10^3 cells/well density then incubated for 24 h at 37° C. On the next day cells were treated with compounds of the invention in 100 nM-200 μM concentration range for 24 h. The viability of the cells were measured using alamarBlue® assay kit according to the supplier's instructions.
The rationale for combination chemotherapy is to use drugs that work by different mechanisms of action, thereby decreasing the likelihood that resistant cancer cells will develop.

melting point: 159 to 160 °C
SMILES: COC(=O)C1=C(C)N(C)C(C)=C(C(=O)OC)C1c1ccc(C(F)(F)F)cc1 [Example 1, Dimethyl 1,2,6-trimethyl-4-(4-trifluoromethylphenyl)-1,4-dihydropyridine-3,5-dicarboxylate]
Other in vitro effects [1]: 0**** | Hsp70 modulation [2]: +* | fasting plasma glucose level ([3]; 10, 30 and 100 mg/kg once a day for 5 days by stomach probe, 16 h fasted, FIG. 5A): improved fasting plasma glucose level | Hsp70 amount in brown adipose tissue ([3]; 10, 30 and 100 mg/kg once a day for 5 days, Western blot, FIG. 5B): elevated Hsp70 amount in brown adipose tissue | In vivo efficacy ([3]; model in which efficacy was shown): Insulin resistance

melting point: 135 to 137 °C
SMILES: CCN1C(C)=C(C(=O)OC)C(c2ccc(C(F)(F)F)cc2)C(C(=O)OC)=C1C [Example 11, Dimethyl 1-ethyl-2,6-dimethyl-4-(4-trifluoromethylphenyl)-1,4-dihydropyridine-3,5-dicarboxylate]
activity of the promoter of the Hsp25 gene at 37° C. ([4]; 37° C.): does not affect the activity of the promoter of the Hsp25 gene at 37 °C | Hsp25 co-inducing activity ([4]; heat stress, FIG. 3): strong, concentration dependent co-inducer for Hsp25 stress protein | Other in vitro effects: Hsp25 [5]: Hsp25+

SMILES: COC(=O)C1=C(C)N(C)C(CCN(C)C)=C(C(=O)OC)C1c1ccc(C(F)(F)F)cc1.Cl (stereo not shown) [Example 14, Dimethyl 2-(2-dimethylaminoethyl)-1,6-dimethyl-4-(4-trifluoromethylphenyl)-1,4-dihydropyridine-3,5-dicarboxylate hydrochloride]
Other in vitro effects [1]: 0 | Increase in life span ([6]; 10 mg/kg i.p. daily from day 7 to day 29): 18% | Mean survival time ([6]; 10 mg/kg i.p. daily from day 7 to day 29, control 25.25+/−4.13 days): 29.91 ± 3.78 days | drug-related mortality and weight loss [6]: did not produce drug-related mortality or weight loss | In vivo efficacy [6]: Cancer mono-

SMILES: COC(=O)C1=C(CCN2CCCCC2)N(C)C(CCN2CCCCC2)=C(C(=O)OC)C1c1ccc(C(F)(F)F)cc1 [Example 17, Dimethyl 1-methyl-2,6-bis-(2-piperidin-1-yl-ethyl)-4-(4-trifluoromethylphenyl)-1,4-dihydropyridine-3,5-dicarboxylate dihydrochloride]
LD50 [7]: 150 mg/kg | Increase in life span ([6]; 1 mg/kg i.p. daily from day 7 to day 18): 23.1% | Mean survival time ([6]; 1 mg/kg i.p. daily from day 7 to day 18, FIG. 8): 31.0 ± 3.7 days | Increase in life span ([6]; 3 mg/kg i.p. daily from day 7 to day 18): 40.8% | Mean survival time ([6]; 3 mg/kg i.p. daily from day 7 to day 18, FIG. 8): 35.55 ± 3.80 days | Increase in life span ([6]; 10 mg/kg i.p. daily from day 7 to day 18): 53.7% | Mean survival time ([6]; 10 mg/kg i.p. daily from day 7 to day 18, FIG. 8): 38.10 ± 10.45 days | drug-related mortality and weight loss [6]: did not produce drug-related mortality and statistically significant drug related weight loss | In vivo efficacy [6]: Cancer mono- | Other in vitro effects: Hsp25 [5]: Hsp25 0

melting point: 136 to 138 °C
SMILES: CCC1=C(C(=O)OC)C(c2ccc(C(F)(F)F)cc2)C(C(=O)OC)=C(CC)N1C [Example 27, Dimethyl 2,6-diethyl-1-methyl-4-(triflouromethyl-phenyl)-1,4-dihydropyridine-3,5-dicarboxylate]
Ca antagonist effect [8]: no Ca antagonist effect | Hsp70 silencer activity [9]: strong concentration dependent silencer for stress induced Hsp70 gene activity | IC50 ([10]; B16-F10, VR with Ex 27 at 10 μM): 0.4 nM

melting point: 129 to 132 °C
SMILES: COC(=O)C1=C(C)N(C)C(C#N)=C(C(=O)OC)C1c1ccc(C(F)(F)F)cc1 (stereo not shown) [Example 47, Dimethyl 2-cyano-1,6-dimethyl-4-(4-trifluoromethylphenyl)-1,4-dihydropyridine-3,5-dicarboxylate]
Other in vitro effects [1]: 0 | Hsp70 modulation [2]: +

index of EC50 HSP-modulating/Ca^2+ antagonist effect [8]: about 1
SMILES: COC(=O)C1=C(C#N)NC(C)=C(C(=O)OC(C)C)C1c1cccc([N+](=O)[O-])c1 (stereo not shown) [Nilvadipine, reference compound]

SMILES: CC[C@]1(O)C[C@H]2CN(CCc3c([nH]c4ccccc34)[C@@](C(=O)OC)(c3cc4c(cc3OC)N(C=O)[C@H]3[C@@](O)(C(=O)OC)[C@H](OC(C)=O)[C@]5(CC)C=CCN6CC[C@]43[C@@H]65)C2)C1 [VR, vincristine, reference compound]
IC50 ([10]; B16-F10, VR treatment alone): 1.3 nM
